Laboratory results reported in ChEMBL document CHEMBL3351379, “Dihydropyrrolo[2,3-d]pyrimidines: Selective Toll-Like Receptor 9 Antagonists from Scaffold Morphing Efforts” (ACS Med Chem Lett, 2014).
≈ marks a conversion by molar mass, not a printed value.

What was measured:
Toll-like receptor 9 = target: T1, Toll-like receptor 9 (Homo sapiens, UniProt Q9NR96); assay: Antagonist activity at human TLR9 transfected in HEK293 cells after 6 hrs by NF-kappaB luciferase reporter assay; assay type: cell-based
T1 sequence (Q9NR96 whole entry): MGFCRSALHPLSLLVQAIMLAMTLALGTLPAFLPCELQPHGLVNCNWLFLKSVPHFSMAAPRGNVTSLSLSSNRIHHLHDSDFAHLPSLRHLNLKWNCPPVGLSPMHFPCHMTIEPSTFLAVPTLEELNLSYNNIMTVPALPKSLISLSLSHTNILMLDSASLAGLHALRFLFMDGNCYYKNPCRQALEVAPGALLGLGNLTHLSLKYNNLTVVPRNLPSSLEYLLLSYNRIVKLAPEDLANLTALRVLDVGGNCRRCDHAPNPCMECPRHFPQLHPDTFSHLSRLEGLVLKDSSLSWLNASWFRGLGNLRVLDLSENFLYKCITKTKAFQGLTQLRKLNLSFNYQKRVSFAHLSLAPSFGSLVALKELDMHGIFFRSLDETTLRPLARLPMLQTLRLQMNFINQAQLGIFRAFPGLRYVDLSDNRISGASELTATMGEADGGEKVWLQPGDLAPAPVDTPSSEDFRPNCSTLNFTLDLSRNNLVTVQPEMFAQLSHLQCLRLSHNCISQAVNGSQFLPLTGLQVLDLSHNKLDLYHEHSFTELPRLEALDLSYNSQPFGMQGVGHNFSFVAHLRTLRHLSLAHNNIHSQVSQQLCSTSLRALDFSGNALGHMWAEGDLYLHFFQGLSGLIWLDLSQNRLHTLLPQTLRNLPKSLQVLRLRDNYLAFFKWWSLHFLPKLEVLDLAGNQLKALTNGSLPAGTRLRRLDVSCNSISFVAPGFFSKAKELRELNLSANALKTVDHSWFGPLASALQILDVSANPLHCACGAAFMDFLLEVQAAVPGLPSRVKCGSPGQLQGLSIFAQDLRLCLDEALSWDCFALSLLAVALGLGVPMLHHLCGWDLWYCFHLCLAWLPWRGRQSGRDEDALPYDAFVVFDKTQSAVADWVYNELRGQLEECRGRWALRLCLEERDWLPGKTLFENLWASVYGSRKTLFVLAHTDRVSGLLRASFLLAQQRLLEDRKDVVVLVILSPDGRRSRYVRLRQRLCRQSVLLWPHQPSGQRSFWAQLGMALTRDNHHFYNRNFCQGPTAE

Homo sapiens = species: Homo sapiens; assay: Metabolic stability in human assessed per mg protein; assay type: ADME
[1] = Aqueous solubility of the compound at pH 7.4; assay type: physicochemical
HEK293 = assay: Selectivity ratio of IC50 for human TLR7 transfected in HEK293 cells to IC50 for human TLR9 transfected in HEK293 cells; assay type: cell-based
Splenocyte = assay: Inhibition of CpG-induced IL-6 production in C57BL/6 mouse splenocytes after 24 hrs by ELISA; assay type: functional, cell-based; settings: C57BL/6, Splenocyte
Mus musculus [2] = assay: Inhibition of IL-6 production in iv dosed C57BL/6 mouse plasma compound administered 1 hr prior to CpG1826 treatment measured after 2 hrs by ELISA; assay type: functional; settings: C57BL/6, Plasma
Toll-like receptor 7 = target: T2, Toll-like receptor 7 (Homo sapiens, UniProt Q9NYK1); assay: Antagonist activity at human TLR7 transfected in HEK293 cells assessed as hydrolysis of pNPP after 24 hrs by SEAP reporter assay; assay type: cell-based
T2 sequence (Q9NYK1 whole entry): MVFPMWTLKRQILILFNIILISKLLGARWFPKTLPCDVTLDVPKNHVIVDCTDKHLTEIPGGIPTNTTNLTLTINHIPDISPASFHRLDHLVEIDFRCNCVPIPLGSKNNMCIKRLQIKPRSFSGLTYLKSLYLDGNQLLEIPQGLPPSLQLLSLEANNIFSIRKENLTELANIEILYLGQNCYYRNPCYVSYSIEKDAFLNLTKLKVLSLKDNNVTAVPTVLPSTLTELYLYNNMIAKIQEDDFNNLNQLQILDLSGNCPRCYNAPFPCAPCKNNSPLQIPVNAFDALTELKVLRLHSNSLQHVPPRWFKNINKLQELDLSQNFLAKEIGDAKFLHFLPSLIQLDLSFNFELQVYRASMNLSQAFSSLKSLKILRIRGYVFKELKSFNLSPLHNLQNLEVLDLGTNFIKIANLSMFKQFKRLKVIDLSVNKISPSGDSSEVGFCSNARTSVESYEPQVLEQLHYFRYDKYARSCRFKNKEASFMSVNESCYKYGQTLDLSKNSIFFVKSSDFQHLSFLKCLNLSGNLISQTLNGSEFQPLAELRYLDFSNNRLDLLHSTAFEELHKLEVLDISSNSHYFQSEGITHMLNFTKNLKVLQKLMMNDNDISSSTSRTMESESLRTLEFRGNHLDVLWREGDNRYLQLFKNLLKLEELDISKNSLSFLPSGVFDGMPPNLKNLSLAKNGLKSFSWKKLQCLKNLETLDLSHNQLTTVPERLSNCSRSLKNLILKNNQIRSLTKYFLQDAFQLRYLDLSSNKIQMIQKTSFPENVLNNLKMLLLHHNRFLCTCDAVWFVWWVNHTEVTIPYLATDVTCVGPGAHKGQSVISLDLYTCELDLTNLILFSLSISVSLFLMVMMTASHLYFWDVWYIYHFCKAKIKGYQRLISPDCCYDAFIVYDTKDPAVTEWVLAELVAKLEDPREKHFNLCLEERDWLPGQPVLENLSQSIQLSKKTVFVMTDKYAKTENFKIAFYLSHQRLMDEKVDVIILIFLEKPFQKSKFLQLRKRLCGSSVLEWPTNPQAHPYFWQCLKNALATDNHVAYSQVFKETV

Toll-like receptor 8 = target: T3, Toll-like receptor 8 (Homo sapiens, UniProt Q9NR97); assay: Antagonist activity at human TLR8 transfected in HEK293 cells after 6 hrs by NF-kappaB luciferase reporter assay; assay type: cell-based
T3 sequence (Q9NR97 whole entry): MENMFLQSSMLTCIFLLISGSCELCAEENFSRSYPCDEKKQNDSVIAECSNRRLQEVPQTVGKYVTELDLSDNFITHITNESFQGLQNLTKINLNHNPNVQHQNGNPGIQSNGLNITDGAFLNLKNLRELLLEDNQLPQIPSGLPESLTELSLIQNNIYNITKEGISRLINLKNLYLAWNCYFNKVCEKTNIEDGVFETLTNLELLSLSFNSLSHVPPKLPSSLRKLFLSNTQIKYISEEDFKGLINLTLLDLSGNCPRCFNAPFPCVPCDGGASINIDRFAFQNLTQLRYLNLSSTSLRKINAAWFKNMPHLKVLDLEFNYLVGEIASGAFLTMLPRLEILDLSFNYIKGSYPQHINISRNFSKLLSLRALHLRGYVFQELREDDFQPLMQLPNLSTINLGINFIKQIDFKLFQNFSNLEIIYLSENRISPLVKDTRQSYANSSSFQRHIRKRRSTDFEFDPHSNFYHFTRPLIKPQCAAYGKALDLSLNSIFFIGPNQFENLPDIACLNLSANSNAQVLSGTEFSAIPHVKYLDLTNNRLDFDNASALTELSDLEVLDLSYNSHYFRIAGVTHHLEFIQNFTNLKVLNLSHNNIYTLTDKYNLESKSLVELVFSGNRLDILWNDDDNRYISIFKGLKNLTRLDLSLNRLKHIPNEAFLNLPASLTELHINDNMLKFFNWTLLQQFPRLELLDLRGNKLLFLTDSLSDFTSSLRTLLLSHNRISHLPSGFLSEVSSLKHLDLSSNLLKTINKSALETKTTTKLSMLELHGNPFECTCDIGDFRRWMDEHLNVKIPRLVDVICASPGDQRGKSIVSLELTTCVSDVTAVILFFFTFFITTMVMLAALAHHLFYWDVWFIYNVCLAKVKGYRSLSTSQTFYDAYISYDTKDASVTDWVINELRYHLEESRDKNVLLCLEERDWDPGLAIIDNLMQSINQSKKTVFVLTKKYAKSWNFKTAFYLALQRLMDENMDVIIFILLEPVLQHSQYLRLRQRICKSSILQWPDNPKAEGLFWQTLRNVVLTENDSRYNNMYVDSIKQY

PBMC = assay: Inhibition of CpG-induced IL-6 production in human PBMC after 24 hrs by ELISA; assay type: functional, cell-based
Mus musculus [3] = assay: Inhibition of IL-6 production in iv dosed C57BL/6 mouse peritoneal lavage fluid compound administered 1 hr prior to CpG1826 treatment measured after 2 hrs by ELISA; assay type: functional, organism-based

| SMILES | IC50 (Toll-like receptor 9) [nM] | further results |
| --- | --- | --- |
| Cc1nc(-c2ccc(N3CCN(C)CC3)cc2)nc2c1CCN2CCCN1CCCC1 | 3.5 | Stability (Homo sapiens): 35 µL/min/mg |
| Cc1nc(-c2ccc(N3CCN(C)CC3)cc2)nc2c1CCN2CCN1CCCC1 | 11 | – |
| CN1CCN(c2ccc(-c3ncc4c(n3)N(CCCN3CCCC3)CC4)cc2)CC1 | 3.9 | Stability (Homo sapiens): 71 µL/min/mg |
| CN1CCN(c2ccc(-c3ncc4c(n3)N(CCCN3CCOCC3)CC4)cc2)C(=O)C1 | > 1000 | – |
| COc1cc2nc(-c3ccc(N4CCN(C)CC4)cc3)nc(NCCN3CCOCC3)c2cc1OC | 4.6 | solubility [1]: 120 µg/mL (≈ 244 µM) |
| CN1CCN(c2ccc(-c3nc4c(c(NCCN5CCOCC5)n3)CCCC4)cc2)CC1 | 27 | Ratio IC50 (HEK293): 71 |
| CN1CCN(c2ccc(-c3nc(Cl)c4c(n3)N(CCCN3CCCC3)CC4)cc2)CC1 | 84 | – |
| CN1CCN(c2ccc(-c3nc4c(c(NCCN5CCOCC5)n3)COCC4)cc2)CC1 | 190 | – |
| Cc1nc(-c2ccc(N3CCN(C)CC3)cc2)nc2c1CCN2CCN1CCOCC1 | 20 | Ratio IC50 (HEK293): 93; Stability (Homo sapiens): < 10 µL/min/mg |
| Cc1nc(-c2ccc(N3CCN(C)CC3)cc2)nc2c1CCN2CCCN1CCOCC1 | 16 | Stability (Homo sapiens): < 10 µL/min/mg |
| Cc1nc(-c2ccc(N3CCN(C)CC3)cc2)nc(NCCN2CCOCC2)c1C | 35 | Stability (Homo sapiens): 69 µL/min/mg |
| COc1nc(-c2ccc(N3CCN(C)CC3)cc2)nc2c1CCN2CCCN1CCCC1 | 120 | – |
| CN1CCN(c2ccc(-c3nc(N(C)C)c4c(n3)N(CCCN3CCCC3)CC4)cc2)CC1 | 73 | – |
| Cc1cnc(-c2ccc(N3CCN(C)CC3)cc2)nc1NCCN1CCOCC1 | 120 | – |
| OCCN1CCN(c2ccc(-c3ncc4c(n3)N(CCCN3CCOCC3)CC4)cc2)CC1 | 13 | IC50 (Splenocyte): 74 nM; ED50 (Mus musculus [2]): 0.8 mg/kg; IC50 (Toll-like receptor 7): 970 nM; solubility [1]: > 10000 µg/mL; IC50 (Toll-like receptor 8): > 10000 nM; Ratio IC50 (HEK293): 75; IC50 (PBMC): 244 nM; inhibition (Mus musculus [3]): Dose-dependent effect |
| CN1CCN(c2cccc(-c3ncc4c(n3)N(CCCN3CCOCC3)CC4)c2)CC1 | 56 | – |
| CN1CCN(c2ccc(-c3nccc(NCCN4CCOCC4)n3)cc2)CC1 | 190 | – |
| CN1CCN(c2ccc(-c3ncc4c(n3)N(CCCN3CCOCC3)CC4)cc2)CC1 | 8.6 | solubility [1]: 1100 µg/mL (≈ 2600 µM); Ratio IC50 (HEK293): > 50 |
| CN1CCN(c2ccccc2-c2ncc3c(n2)N(CCCN2CCOCC2)CC3)CC1 | 56 | – |
| COCCN1CCN(c2ccc(-c3ncc4c(n3)N(CCCN3CCOCC3)CC4)cc2)CC1 | 28 | – |
| CN1CCN(c2ccc(-c3ncc4c(n3)N(CCCCN3CCOCC3)CC4)cc2)CC1 | 11 | – |
| CN1CCN(c2ccc(-c3ncc4c(n3)N(CCN3CCOCC3)CC4)cc2)CC1 | 73 | – |
